Measurements from ChEMBL document CHEMBL3885881, “DrugMatrix”.

Species: Rattus norvegicus
Test: DrugMatrix - Regimen: Daily Repeat
Type: toxicity, organism-based, Sprague-Dawley
Design: regimen Daily Repeat, gender Male, age 6-8 weeks
Conditions: in vivo, po, route oral GAVAGE, vehicle .5 % CMC; for BASOPHIL / EOSINOPHIL / ERYTHROCYTE COUNT / HEMATOCRIT / HEMOGLOBIN / LEUKOCYTE COUNT / LYMPHOCYTE / MEAN CORPUSCULAR HEMOGLOBIN / MEAN CORPUSCULAR HEMOGLOBIN CONCENTRATION / MEAN CORPUSCULAR VOLUME / MONOCYTE / NEUTROPHIL / PLATELET COUNT: tissue Blood; for ALANINE AMINOTRANSFERASE / ALBUMIN / ALKALINE PHOSPHATASE / ASPARTATE AMINOTRANSFERASE / BLOOD UREA NITROGEN / CHLORIDE / CHOLESTEROL / CREATINE PHOSPHOKINASE / CREATININE / GLUCOSE / PHOSPHORUS / POTASSIUM / SODIUM / TOTAL BILIRUBIN / TOTAL PROTEIN: tissue Plasma
[1] = 0 mg/kg, 72 h, dose level Control, time 3 day
[2] = 0 mg/kg, 120 h, dose level Control, time 5 day
[3] = 38 mg/kg, 72 h, dose level Low, time 3 day
[4] = 38 mg/kg, 120 h, dose level Low, time 5 day
[5] = 269 mg/kg, 72 h, dose level High, time 3 day
[6] = 269 mg/kg, 120 h, dose level High, time 5 day

SMILES: CCCNC(=O)NS(=O)(=O)c1ccc(Cl)cc1 [CHLORPROPAMIDE]
- BASOPHIL [1]: 0%
- EOSINOPHIL [1]: 0.33%
- ERYTHROCYTE COUNT [1]: 6.2 x10E6/uL
- HEMATOCRIT [1]: 38.08%
- HEMOGLOBIN [1]: 14.92 G/DL
- LEUKOCYTE COUNT [1]: 11.13 x10E3/uL
- LYMPHOCYTE [1]: 76%
- MEAN CORPUSCULAR HEMOGLOBIN [1]: 24.1 pg
- MEAN CORPUSCULAR HEMOGLOBIN CONCENTRATION [1]: 39.17 G/DL
- MEAN CORPUSCULAR VOLUME [1]: 61.48 fL
- MONOCYTE [1]: 3.83%
- NEUTROPHIL [1]: 19.83%
- PLATELET COUNT [1]: 1327.5 x10E3/uL
- ALANINE AMINOTRANSFERASE [1]: 40.17 u/L
- ALBUMIN [1]: 4.07 G/DL
- ALKALINE PHOSPHATASE [1]: 372 u/L
- ASPARTATE AMINOTRANSFERASE [1]: 67.17 u/L
- BLOOD UREA NITROGEN [1]: 18.83 mg/dL
- CHLORIDE [1]: 105.17 MEQ/L
- CHOLESTEROL [1]: 78.17 mg/dL
- CREATINE PHOSPHOKINASE [1]: 149.17 u/L
- CREATININE [1]: 0.57 mg/dL
- GLUCOSE [1]: 185.17 mg/dL
- PHOSPHORUS [1]: 11.43 mg/dL
- POTASSIUM [1]: 6.78 MEQ/L
- SODIUM [1]: 152.83 MEQ/L
- TOTAL BILIRUBIN [1]: 0.4 mg/dL
- TOTAL PROTEIN [1]: 6.87 G/DL
- BASOPHIL [2]: 0%
- EOSINOPHIL [2]: 0%
- ERYTHROCYTE COUNT [2]: 6.05 x10E6/uL
- HEMATOCRIT [2]: 36.55%
- HEMOGLOBIN [2]: 14.7 G/DL
- LEUKOCYTE COUNT [2]: 11.8 x10E3/uL
- LYMPHOCYTE [2]: 86.83%
- MEAN CORPUSCULAR HEMOGLOBIN [2]: 24.37 pg
- MEAN CORPUSCULAR HEMOGLOBIN CONCENTRATION [2]: 40.32 G/DL
- MEAN CORPUSCULAR VOLUME [2]: 60.47 fL
- MONOCYTE [2]: 0.83%
- NEUTROPHIL [2]: 12.33%
- PLATELET COUNT [2]: 1177 x10E3/uL
- ALANINE AMINOTRANSFERASE [2]: 41.83 u/L
- ALBUMIN [2]: 3.75 G/DL
- ALKALINE PHOSPHATASE [2]: 377.5 u/L
- ASPARTATE AMINOTRANSFERASE [2]: 60.83 u/L
- BLOOD UREA NITROGEN [2]: 16 mg/dL
- CHLORIDE [2]: 105.67 MEQ/L
- CHOLESTEROL [2]: 67.83 mg/dL
- CREATINE PHOSPHOKINASE [2]: 120.33 u/L
- CREATININE [2]: 0.6 mg/dL
- GLUCOSE [2]: 167.67 mg/dL
- PHOSPHORUS [2]: 10.03 mg/dL
- POTASSIUM [2]: 6.68 MEQ/L
- SODIUM [2]: 150.5 MEQ/L
- TOTAL BILIRUBIN [2]: 0.57 mg/dL
- TOTAL PROTEIN [2]: 6.25 G/DL
- BASOPHIL [3]: 0%
- EOSINOPHIL [3]: 0%
- ERYTHROCYTE COUNT [3]: 5.72 x10E6/uL
- HEMATOCRIT [3]: 35.8%
- HEMOGLOBIN [3]: 13.93 G/DL
- LEUKOCYTE COUNT [3]: 12.2 x10E3/uL
- LYMPHOCYTE [3]: 81%
- MEAN CORPUSCULAR HEMOGLOBIN [3]: 24.4 pg
- MEAN CORPUSCULAR HEMOGLOBIN CONCENTRATION [3]: 38.9 G/DL
- MEAN CORPUSCULAR VOLUME [3]: 62.73 fL
- MONOCYTE [3]: 1.67%
- NEUTROPHIL [3]: 17.33%
- PLATELET COUNT [3]: 1327 x10E3/uL
- ALANINE AMINOTRANSFERASE [3]: 39.33 u/L
- ALBUMIN [3]: 3.73 G/DL
- ALKALINE PHOSPHATASE [3]: 318.67 u/L
- ASPARTATE AMINOTRANSFERASE [3]: 61.33 u/L
- BLOOD UREA NITROGEN [3]: 14.33 mg/dL
- CHLORIDE [3]: 105.67 MEQ/L
- CHOLESTEROL [3]: 77.33 mg/dL
- CREATINE PHOSPHOKINASE [3]: 126.33 u/L
- CREATININE [3]: 0.57 mg/dL
- GLUCOSE [3]: 180.33 mg/dL
- PHOSPHORUS [3]: 11.27 mg/dL
- POTASSIUM [3]: 6.7 MEQ/L
- SODIUM [3]: 151.33 MEQ/L
- TOTAL BILIRUBIN [3]: 0.33 mg/dL
- TOTAL PROTEIN [3]: 6.07 G/DL
- BASOPHIL [4]: 0%
- EOSINOPHIL [4]: 0.33%
- ERYTHROCYTE COUNT [4]: 6.28 x10E6/uL
- HEMATOCRIT [4]: 38.47%
- HEMOGLOBIN [4]: 15 G/DL
- LEUKOCYTE COUNT [4]: 16.07 x10E3/uL
- LYMPHOCYTE [4]: 86.67%
- MEAN CORPUSCULAR HEMOGLOBIN [4]: 23.93 pg
- MEAN CORPUSCULAR HEMOGLOBIN CONCENTRATION [4]: 39 G/DL
- MEAN CORPUSCULAR VOLUME [4]: 61.4 fL
- MONOCYTE [4]: 1.67%
- NEUTROPHIL [4]: 11.33%
- PLATELET COUNT [4]: 1190.33 x10E3/uL
- ALANINE AMINOTRANSFERASE [4]: 35.67 u/L
- ALBUMIN [4]: 3.7 G/DL
- ALKALINE PHOSPHATASE [4]: 350 u/L
- ASPARTATE AMINOTRANSFERASE [4]: 61.33 u/L
- BLOOD UREA NITROGEN [4]: 14.33 mg/dL
- CHLORIDE [4]: 106.33 MEQ/L
- CHOLESTEROL [4]: 65 mg/dL
- CREATINE PHOSPHOKINASE [4]: 140.67 u/L
- CREATININE [4]: 0.6 mg/dL
- GLUCOSE [4]: 178 mg/dL
- PHOSPHORUS [4]: 11 mg/dL
- POTASSIUM [4]: 6.43 MEQ/L
- SODIUM [4]: 149.33 MEQ/L
- TOTAL BILIRUBIN [4]: 0.37 mg/dL
- TOTAL PROTEIN [4]: 6.1 G/DL
- BASOPHIL [5]: 0%
- EOSINOPHIL [5]: 0.33%
- ERYTHROCYTE COUNT [5]: 6.04 x10E6/uL
- HEMATOCRIT [5]: 37%
- HEMOGLOBIN [5]: 14.33 G/DL
- LEUKOCYTE COUNT [5]: 8.83 x10E3/uL
- LYMPHOCYTE [5]: 83.67%
- MEAN CORPUSCULAR HEMOGLOBIN [5]: 23.93 pg
- MEAN CORPUSCULAR HEMOGLOBIN CONCENTRATION [5]: 38.77 G/DL
- MEAN CORPUSCULAR VOLUME [5]: 61.6 fL
- MONOCYTE [5]: 2%
- NEUTROPHIL [5]: 14%
- PLATELET COUNT [5]: 1429 x10E3/uL
- ALANINE AMINOTRANSFERASE [5]: 26 u/L
- ALBUMIN [5]: 3.83 G/DL
- ALKALINE PHOSPHATASE [5]: 312 u/L
- ASPARTATE AMINOTRANSFERASE [5]: 48.33 u/L
- BLOOD UREA NITROGEN [5]: 17 mg/dL
- CHLORIDE [5]: 109.33 MEQ/L
- CHOLESTEROL [5]: 73 mg/dL
- CREATINE PHOSPHOKINASE [5]: 142 u/L
- CREATININE [5]: 0.53 mg/dL
- GLUCOSE [5]: 163.33 mg/dL
- PHOSPHORUS [5]: 9.83 mg/dL
- POTASSIUM [5]: 5.8 MEQ/L
- SODIUM [5]: 151.33 MEQ/L
- TOTAL BILIRUBIN [5]: 0.17 mg/dL
- TOTAL PROTEIN [5]: 6.3 G/DL
- BASOPHIL [6]: 0%
- EOSINOPHIL [6]: 0%
- ERYTHROCYTE COUNT [6]: 5.62 x10E6/uL
- HEMATOCRIT [6]: 33.9%
- HEMOGLOBIN [6]: 14.07 G/DL
- LEUKOCYTE COUNT [6]: 10.7 x10E3/uL
- LYMPHOCYTE [6]: 76.67%
- MEAN CORPUSCULAR HEMOGLOBIN [6]: 25.07 pg
- MEAN CORPUSCULAR HEMOGLOBIN CONCENTRATION [6]: 41.53 G/DL
- MEAN CORPUSCULAR VOLUME [6]: 60.37 fL
- MONOCYTE [6]: 2.33%
- NEUTROPHIL [6]: 21%
- PLATELET COUNT [6]: 995.67 x10E3/uL
- ALANINE AMINOTRANSFERASE [6]: 34.67 u/L
- ALBUMIN [6]: 3.7 G/DL
- ALKALINE PHOSPHATASE [6]: 315.33 u/L
- ASPARTATE AMINOTRANSFERASE [6]: 55.33 u/L
- BLOOD UREA NITROGEN [6]: 16.33 mg/dL
- CHLORIDE [6]: 112.33 MEQ/L
- CHOLESTEROL [6]: 71.33 mg/dL
- CREATINE PHOSPHOKINASE [6]: 127.33 u/L
- CREATININE [6]: 0.6 mg/dL
- GLUCOSE [6]: 173.33 mg/dL
- PHOSPHORUS [6]: 10.27 mg/dL
- POTASSIUM [6]: 5.83 MEQ/L
- SODIUM [6]: 155 MEQ/L
- TOTAL BILIRUBIN [6]: 0.23 mg/dL
- TOTAL PROTEIN [6]: 6.1 G/DL
